Measurements reported in patent US9770026B2, “Substituted pyrimidine compound and uses thereof” (Shenyang Sinochem Agrochemicals R&D Co., Ltd., priority 2012, dated 2017).

How the values were obtained:
[1] = system: rice blast; test: microbe, parasite or virus in culture; assay type: cell-based; settings: Pyricularia oryzae; for inhibition at 25 ppm: read-out: inhibition rate against rice blast, 25 ppm, in vitro
[2] = system: cucumber gray mold; test: fungicidal activity in vitro (inhibition rate) against cucumber gray mold; assay type: cell-based; settings: 25 ppm, in vitro; read-out: inhibition rate against cucumber gray mold
[3] = system: armyworm; test: bioactivity test against armyworm, airbrush spray; assay type: in vivo; settings: 72 h; for pest or weed control at 600 µg/mL: 600 mg/L
[4] = system: corn rust; test: protectant activity in vivo against corn rust; settings: Zea mays, 168 h; for pest or weed control at 400 µg/mL: read-out: control effect against corn rust (%), 400 mg/L
[5] = system: wheat powdery mildew; test: protectant activity in vivo against wheat powdery mildew; settings: Triticum aestivum, 168 h; for pest or weed control at 6.25 µg/mL: read-out: control effect against wheat powdery mildew (%), 6.25 mg/L; for pest or weed control at 25 µg/mL: read-out: control effect against wheat powdery mildew (%), 25 mg/L; for pest or weed control at 100 µg/mL: read-out: control effect against wheat powdery mildew (%), 100 mg/L; for pest or weed control at 400 µg/mL: read-out: control effect against wheat powdery mildew (%), 400 mg/L
[6] = system: cucumber downy mildew; test: protectant activity in vivo against cucumber downy mildew; settings: Cucumis sativus, 168 h, protectant activity; for pest or weed control at 25 µg/mL: read-out: control effect against cucumber downy mildew (%), 25 mg/L; for pest or weed control at 50 µg/mL: read-out: control effect against cucumber downy mildew (%), 50 mg/L; for pest or weed control at 100 µg/mL: read-out: control effect against cucumber downy mildew (%), 100 mg/L; for pest or weed control at 400 µg/mL: read-out: control effect against cucumber downy mildew (%), 400 mg/L
[7] = system: Diamond back moth; test: insecticidal activity against diamond back moth, airbrush spray; assay type: in vivo; settings: 72 h, 600 mg/L
Outline: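 Airbrush leaf-disc spray test: both faces of 2 cm cabbage discs received 0.5 ml of test solution at 0.7 kg/cm^2. Solutions were made in acetone:methanol (1:1) and brought to concentration with 0.1% Tween 80 in water. Ten second-instar larvae per disc, triplicates, were held at 25° C and 60˜70% R.H., with mortality recorded at 72 hrs.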

[8] = system: Green peach aphids (Myzus Persicae Sulzer); test: bioactivity test against green peach aphid, airbrush foliar spray; assay type: in vivo; settings: Myzus persicae, foliar, 48 h; for pest or weed control at 600 µg/mL: 600 mg/L
Outline: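 Death rate was scored at 48 hrs, held at 25±1 C and 60±5% RH, following airbrush foliar spray (0.5 mL, 10 psi) onto cabbage leaf discs bearing about 15-30 aphids. Test solutions: compound dissolved in 1:1 acetone:methanol, brought to concentration with 0.1% tween 80 water.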

[9] = system: carmine spider mite; test: bioactivity test against carmine spider mite, airbrush spray; assay type: in vivo; settings: Tetranychus cinnabarinus, 72 h; for pest or weed control at 600 µg/mL: 600 mg/L, contrastive test, read-out: Insecticidal activity against carmine spider mite (% )
Outline: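 Broadbean seedlings infested with adult mites were sprayed with compound (acetone/methanol stock diluted in 0.1% Tween 80 water) by airbrush at 0.7 kg/cm^2, 0.5 ml. Three replicates were run. Mortality was scored after 72 hrs.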

[10] = read-out: Insecticidal activity against armyworm (%)
[11] = contrastive test, read-out: Insecticidal activity against peach aphid (%)

## CCc1ncnc(NC(C)c2ccc(Oc3ccc(C(F)(F)F)cc3)cc2)c1Cl (stereo not drawn) [CK47, reference compound]
[1]; read-out: inhibition rate against rice blast, 8.3 ppm, in vitro
  inhibition at 8.3 ppm: 0%
[1]
  inhibition at 25 ppm: < 50%
[2]
  inhibition at 25 ppm: 0%
[3]; 10 mg/L, read-out: Insecticidal activity against armyworm (%)
  pest or weed control at 10 µg/mL: 0%
[3]; 100 mg/L, read-out: Insecticidal activity against armyworm (%)
  pest or weed control at 100 µg/mL: 25%
[3]; [10]
  pest or weed control at 600 µg/mL: 86%
[4]; read-out: control effect against corn rust (%), 6.25 mg/L, protectant activity
  pest or weed control at 6.25 µg/mL: 0%
[4]; read-out: control effect against corn rust (%), 25 mg/L, protectant activity
  pest or weed control at 25 µg/mL: 0%
[4]; read-out: control effect against corn rust (%), 100 mg/L, protectant activity
  pest or weed control at 100 µg/mL: 30%
[4]; protectant activity
  pest or weed control at 400 µg/mL: 80%

## CC(F)c1ncnc(NCCc2ccc(Oc3ccc(C(F)(F)F)cc3)cc2)c1Cl (stereo not drawn) [CK1, reference compound]
[1]
  inhibition at 25 ppm: 0%
[2]
  inhibition at 25 ppm: 0%
[5]; protectant activity
  pest or weed control at 6.25 µg/mL: 80%
  pest or weed control at 25 µg/mL: 100%
  pest or weed control at 100 µg/mL: 100%
  pest or weed control at 400 µg/mL: 100%
[6]; read-out: control effect against cucumber downy mildew (%), 3.125 mg/L
  pest or weed control at 3.125 µg/mL: 20%
[6]; read-out: control effect against cucumber downy mildew (%), 6.25 mg/L
  pest or weed control at 6.25 µg/mL: 30%
[6]; read-out: control effect against cucumber downy mildew (%), 12.5 mg/L
  pest or weed control at 12.5 µg/mL: 50%
[6]
  pest or weed control at 25 µg/mL: 100%
  pest or weed control at 50 µg/mL: 100%
  pest or weed control at 100 µg/mL: 100%
  pest or weed control at 400 µg/mL: 100%

## CCOC(=O)c1ccc(Oc2ccc(CCNc3cc(Cl)nc(C)n3)cc2)nc1 [CK76, reference compound]
[2]
  inhibition at 25 ppm: 0%
[7]
  pest or weed control at 600 µg/mL: 0%
[3]; [10]
  pest or weed control at 600 µg/mL: 0%
[8]; [11]
  pest or weed control at 600 µg/mL: 52%
[9]
  pest or weed control at 600 µg/mL: 41%
[4]; protectant activity
  pest or weed control at 400 µg/mL: 70%
[5]; protectant activity
  pest or weed control at 400 µg/mL: 75%
[6]
  pest or weed control at 400 µg/mL: 0%

## Cc1nc(Cl)cc(NCCc2ccc(Oc3ccc(C(F)(F)F)cn3)cc2)n1 [CK67, reference compound]
[2]
  inhibition at 25 ppm: 0%
[7]
  pest or weed control at 600 µg/mL: 14%
[3]; [10]
  pest or weed control at 600 µg/mL: 0%
[8]; 10 mg/L, contrastive test, read-out: Insecticidal activity against peach aphid (%)
  pest or weed control at 10 µg/mL: 0%
[8]; 100 mg/L, contrastive test, read-out: Insecticidal activity against peach aphid (%)
  pest or weed control at 100 µg/mL: 54%
[8]; [11]
  pest or weed control at 600 µg/mL: 86%
[9]
  pest or weed control at 600 µg/mL: 61%
[4]; protectant activity
  pest or weed control at 400 µg/mL: 0%
[5]; protectant activity
  pest or weed control at 400 µg/mL: 0%
[6]
  pest or weed control at 25 µg/mL: 0%
  pest or weed control at 50 µg/mL: 20%
  pest or weed control at 100 µg/mL: 60%
  pest or weed control at 400 µg/mL: 100%

## FC(F)c1ncnc(NCCc2ccc(Oc3ccc(C(F)(F)F)cn3)cc2)c1Cl [Compound I-2342]
[1]
  inhibition at 25 ppm: 80 to 99%
[2]
  inhibition at 25 ppm: 100%
[3]; 600 ppm, mortality after 72 h
  pest or weed control at 600 ppm: 100%
[8]; 10 ppm, death rate after 48 hrs
  pest or weed control at 10 ppm: 100%
[8]; 100 ppm, death rate after 48 hrs
  pest or weed control at 100 ppm: 100%
[8]; 600 ppm, death rate after 48 hrs
  pest or weed control at 600 ppm: 100%
[9]; 100 ppm, mortality after 72 hrs
  pest or weed control at 100 ppm: 100%
[9]; 600 ppm, mortality after 72 hrs
  pest or weed control at 600 ppm: 100%
[4]; read-out: protectant activity against corn rust in vivo, 6.25 ppm
  pest or weed control at 6.25 ppm: 100%
[4]; read-out: protectant activity against corn rust in vivo, 25 ppm
  pest or weed control at 25 ppm: 100%
[4]; read-out: protectant activity against corn rust in vivo, 100 ppm
  pest or weed control at 100 ppm: 100%
[4]; read-out: protectant activity against corn rust in vivo, 400 ppm
  pest or weed control at 400 ppm: 100%
[5]; read-out: control effect against wheat powdery mildew (%), 0.4 mg/L, protectant activity
  pest or weed control at 0.4 µg/mL: 60%
[5]; read-out: control effect against wheat powdery mildew (%), 1.6 mg/L, protectant activity
  pest or weed control at 1.6 µg/mL: 95%
[5]; protectant activity
  pest or weed control at 6.25 µg/mL: 100%
  pest or weed control at 25 µg/mL: 100%
  pest or weed control at 100 µg/mL: 100%
  pest or weed control at 400 µg/mL: 100%
[5]; read-out: protectant activity against wheat powdery mildew in vivo, 6.25 ppm
  pest or weed control at 6.25 ppm: 100%
[5]; read-out: protectant activity against wheat powdery mildew in vivo, 25 ppm
  pest or weed control at 25 ppm: 100%
[5]; read-out: protectant activity against wheat powdery mildew in vivo, 100 ppm
  pest or weed control at 100 ppm: 100%
[5]; read-out: protectant activity against wheat powdery mildew in vivo, 400 ppm
  pest or weed control at 400 ppm: 100%
